We go through two compounds from patent publication US8816089B2, “Methods for controlling SR protein phosphorylation, and antiviral agents whose active ingredients comprise agents that control SR protein activity” (priority 2003, dated 2014).

In series [1] the target is T1, SRPK1 (Homo sapiens, UniProt Q96SB4).
T1 construct: made in house; host or cells: E. coli
Nature of the series: SRPK1 phosphorylation activity assay with RS peptide and [γ-32P]ATP. The format is biochemical.

The test system of series [2] is Slc:SD rats. In words: Single-dose oral administration toxicity test. As for the experimental part:
The toxicity of SRPIN-1 was tested by single-dose oral administration to rats. SRPIN-1 was orally administered at a dose of 125, 250, 500, 1000, or 2000 mg/kg (in a volume of 10 ml per kg) to Slc:SD rats (five weeks old; Japan SLC, Inc.) whose weight gain and general conditions were normal during the acclimatization period. Each group included two males and two females. The animals were fasted from the evening of the day before administration until about four hours after administration. […] Then, SRPIN-1 was likewise orally administered at a dose of 2000 mg/kg to five male and five female Slc:SD rats (five weeks old).

Series [3] deals with SRPK2 (Homo sapiens, UniProt P78362). In words: Kinase phosphorylation assay, same technique as for SRPK1. Format: biochemical. The note with it: final concentration of 10 μM.
Series [4] relates to SRp75 protein. Nature of the series: In vivo inhibition of SR protein phosphorylation and induction of SR protein degradation, Western blot of HA-SRp75. Format: cell-based, human. As to conditions: Flp-In-293 cells, SRPIN-1 10, 20, or 50 μM with MG132 10 μM, 15 hours. As for the experimental part:
FIG. 4C: Evaluation of in-vivo inhibition of SR protein phosphorylation using SRPIN-1, and evaluation of the induction of the accompanying SR protein degradation. HA-SRp75 plasmid was introduced into Flp-In293 cells. After 36 hours, MG132 (final concentration: 10 μM) and SRPIN-1 (10, 20, or 50 μM) were added to the cells. The cells were incubated for 15 hours and then lysed. After SDS-PAGE, the samples were analyzed by Western blotting using anti-HA antibody. Western analysis was also carried out using an antibody against beta actin as a control protein amount.
HA-SRp75 plasmid (1.0 μg) was introduced into Flp-In-293 cells. After 36 hours, MG132 (final concentration: 10 μM) and SRPIN-1 (10, 20, or 50 μM) were added, and the cells were incubated for 15 hours. Then, the cells were lysed with SDS-PAGE sample buffer. The lysate was used as a protein sample. The sample was fractionated by SDS-PAGE and analyzed by Western blotting using the anti-HA antibody. In addition, as a control for protein amount, Western analysis was carried out using anti-beta actin antibody.

Series [5] relates to HIV. In words: HIV infection experiment in MT-4 cells, HIVp24 by Lumipulse ELISA. As to conditions: supernatant after 48 hours.
For series [6], the system named is Chinese hamster CHL cells. In words: Chromosomal screening test for mutagenicity in mammalian cells.
The subject of series [7] is PKC. Nature of the series: Kinase phosphorylation assay, same technique as for SRPK1. The format is biochemical. As to conditions: final concentration of 10 μM.
Series [8] deals with Cytomegalovirus. The note with it: HFL1 cells.
For series [9], the system named is SARS virus (FFM-1). Format: cell-based.
The target of series [10] is PRP4 (Homo sapiens, UniProt Q13523). In words: Kinase phosphorylation assay, same technique as for SRPK1. The format is biochemical. The note with it: final concentration of 10 μM.
For series [11], the system named is sindbis virus. The format is cell-based.
In series [12] the test system is PKA. As to conditions: final concentration of 10 μM.
Series [13] relates to SRp75, SRp55, and SRp40. Nature of the series: Degradation of HA-tagged SR proteins in Flp-In-293 cells, Western blot. Format: cell-based, human. As to conditions: 10 μM, ten hours. How it is done:
FIG. 1B: Degradation of SR protein. Plasmids for the SRp75, SRp55, and SRp40 genes were fused with HA tag and introduced into Flp-In-293 cells. MG132 (474790; purchased from CALBIOCHEM) was added to the cells at a final concentration of 10 μM. The cells were lysed and heat-denatured. The resulting protein sample was separated by SDS-PAGE, followed by Western analysis using a rabbit anti-HA antibody as the primary antibody and a donkey anti-rabbit IgG antibody as the secondary antibody.
Using Genejuice, 1 μg each of the plasmids for the SRp75, SRp55, and SRp40 genes fused with HA tag (HA-SRp75, HA-SRp55, and HA-SRp40; gifts from Dr. Woan-Yuh TARN), were introduced into Flp-In-293 cells derived from human fetal kidney. After 36 hours, MG132 (474790; purchased from Calbiochem), a ubiquitin proteasome inhibitor, was added at a final concentration of 10 μM. After ten hours, the cells were lysed with SDS-PAGE sample buffer and heat-denatured. The resulting lysate was used as a protein sample. Using the same procedures as described above, the sample was fractionated by SDS-PAGE, and analyzed by Western blotting using a rabbit anti-HA antibody (H1803; purchased from Santa Cruz) as a primary antibody and a donkey anti-rabbit IgG antibody (NA9340; purchased from Amersham) as a secondary antibody.

Peptide text beside a SMILES is read from it. * marks the point of attachment. Cbz = O=C(OCc1ccccc1)*

T1 sequence (Q96SB4 whole entry, species assumed): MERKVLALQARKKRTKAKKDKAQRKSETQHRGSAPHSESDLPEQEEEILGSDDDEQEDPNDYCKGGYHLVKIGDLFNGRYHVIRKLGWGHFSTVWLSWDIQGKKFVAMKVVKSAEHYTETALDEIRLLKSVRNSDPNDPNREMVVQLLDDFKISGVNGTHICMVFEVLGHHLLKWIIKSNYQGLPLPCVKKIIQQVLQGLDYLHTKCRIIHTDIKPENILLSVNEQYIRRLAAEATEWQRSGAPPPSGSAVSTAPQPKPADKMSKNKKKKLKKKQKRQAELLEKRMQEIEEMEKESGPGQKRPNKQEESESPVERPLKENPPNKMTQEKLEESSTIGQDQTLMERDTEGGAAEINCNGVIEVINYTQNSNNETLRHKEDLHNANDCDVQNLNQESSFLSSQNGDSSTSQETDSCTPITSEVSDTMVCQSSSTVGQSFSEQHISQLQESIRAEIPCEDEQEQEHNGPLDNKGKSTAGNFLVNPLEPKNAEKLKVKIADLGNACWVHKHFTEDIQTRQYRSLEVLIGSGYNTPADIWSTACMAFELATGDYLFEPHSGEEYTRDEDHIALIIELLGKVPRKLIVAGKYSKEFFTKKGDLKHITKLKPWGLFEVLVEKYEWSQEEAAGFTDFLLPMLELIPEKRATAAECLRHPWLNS
Chain of PRP4 (Q13523 whole entry): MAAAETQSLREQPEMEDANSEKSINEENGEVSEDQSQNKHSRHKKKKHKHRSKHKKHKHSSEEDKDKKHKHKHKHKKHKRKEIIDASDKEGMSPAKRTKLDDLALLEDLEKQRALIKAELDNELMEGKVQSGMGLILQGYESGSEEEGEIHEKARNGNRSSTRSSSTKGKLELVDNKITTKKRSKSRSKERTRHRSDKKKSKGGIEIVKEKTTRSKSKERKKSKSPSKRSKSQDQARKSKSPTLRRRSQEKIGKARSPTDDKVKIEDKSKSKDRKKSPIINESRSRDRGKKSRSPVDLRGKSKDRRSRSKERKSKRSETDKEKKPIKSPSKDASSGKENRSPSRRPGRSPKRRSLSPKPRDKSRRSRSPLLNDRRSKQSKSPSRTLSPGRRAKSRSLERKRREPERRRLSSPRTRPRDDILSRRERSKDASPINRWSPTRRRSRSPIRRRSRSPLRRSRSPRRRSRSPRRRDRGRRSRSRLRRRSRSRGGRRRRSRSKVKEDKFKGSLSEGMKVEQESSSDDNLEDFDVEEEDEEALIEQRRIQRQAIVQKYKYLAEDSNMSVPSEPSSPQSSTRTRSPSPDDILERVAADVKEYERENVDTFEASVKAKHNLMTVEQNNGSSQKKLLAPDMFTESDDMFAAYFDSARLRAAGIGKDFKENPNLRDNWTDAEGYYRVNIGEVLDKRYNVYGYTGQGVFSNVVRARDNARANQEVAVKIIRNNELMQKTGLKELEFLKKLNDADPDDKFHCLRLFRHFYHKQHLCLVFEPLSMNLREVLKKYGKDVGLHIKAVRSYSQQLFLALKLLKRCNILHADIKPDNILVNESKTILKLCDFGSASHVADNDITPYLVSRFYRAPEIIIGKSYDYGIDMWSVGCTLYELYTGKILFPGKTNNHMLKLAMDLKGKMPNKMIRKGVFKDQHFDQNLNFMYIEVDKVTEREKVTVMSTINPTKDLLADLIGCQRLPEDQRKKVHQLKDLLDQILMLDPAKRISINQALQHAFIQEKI
Chain of SRPK2 (P78362 whole entry, species assumed): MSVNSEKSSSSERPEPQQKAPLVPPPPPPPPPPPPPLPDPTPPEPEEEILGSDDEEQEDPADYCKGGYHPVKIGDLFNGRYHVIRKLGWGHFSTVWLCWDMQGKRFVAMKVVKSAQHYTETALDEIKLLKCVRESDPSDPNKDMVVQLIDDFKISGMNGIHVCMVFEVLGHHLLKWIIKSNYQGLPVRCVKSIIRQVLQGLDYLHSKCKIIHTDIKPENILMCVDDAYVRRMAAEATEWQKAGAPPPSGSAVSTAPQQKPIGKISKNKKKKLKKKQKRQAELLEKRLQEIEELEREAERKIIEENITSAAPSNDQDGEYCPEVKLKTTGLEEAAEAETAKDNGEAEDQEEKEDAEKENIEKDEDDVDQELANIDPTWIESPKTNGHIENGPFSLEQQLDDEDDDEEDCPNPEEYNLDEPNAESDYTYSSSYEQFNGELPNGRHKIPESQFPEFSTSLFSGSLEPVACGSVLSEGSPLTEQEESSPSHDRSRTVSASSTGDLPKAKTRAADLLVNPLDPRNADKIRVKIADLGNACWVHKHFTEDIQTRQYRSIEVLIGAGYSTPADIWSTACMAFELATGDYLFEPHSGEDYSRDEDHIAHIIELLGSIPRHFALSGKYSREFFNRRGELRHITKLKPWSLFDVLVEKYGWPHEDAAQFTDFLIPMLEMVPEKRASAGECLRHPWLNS

In series [1], `O=C(Nc1cc(C(F)(F)F)ccc1N1CCCCC1)c1ccncc1` [Compound No. 340, N-[2-(1-piperidinyl)-5-(trifluoromethyl)phenyl]isonicotinamide] returned a concentration for half-maximal inhibition (IC50) of approximately 0.4 µM. Besides, the death entry in series [2] (oral 2000 mg/kg, observed for 14 days) is “none of the male and female rats died”; in series [2] (oral 125, 250, 500, 1000, or 2000 mg/kg, two days after administration) it was “None of the male and female rats died”. Further, the general condition result in series [2] (rat, in vivo, po, 2000 mg/kg) is listed as “no abnormalities were detectable in their general condition”. In addition, the “inhibitory effect on SRPK2” value in series [3] is “did not exhibit an inhibitory effect”. Further, in series [4], the “HA antibody signal (HA-SRp75)” value was “weakened depending on the concentration of SRPIN-1”. For the same compound, in series [5] (MT-4 cells, 5, 10, or 20 μM), the “effect in suppressing HIV replication (HIVp24)” value was “strong effects in suppressing HIV propagation”. Besides, in [5] (MT-4 cells, SRPIN-1 0.5, 10, or 20 μM), the “amount of HIVp24” value is given as “decreased in an SRPIN-1 concentration-dependent manner”. Besides, the “increase in the number of cells with structural and numerical chromosomal abnormalities” value in series [6] (continuous treatment method (24 hours), 5, 1.58, or 0.5 mg/ml) is reported as “negative (When the frequency of cell abnormality was less than 5%, the testing substance was judged to be negative)”; in series [6] (short treatment method (+S9 mix, six hours), 5, 1.58, or 0.5 mg/ml), “negative (When the frequency of cell abnormality was less than 5%, the testing substance was judged to be negative)”. In series [7], the “inhibitory effect on PKC” value was “did not exhibit an inhibitory effect”. Also, the “morphological changes and cell death caused by cytomegalovirus infection” value in series [8] (20 μM, seven days after infection) is given as “neither abnormal morphological changes nor cell death were detectable”. For the same compound, the “morphological changes induced by the compound” value in series [8] (40 μM) is listed as “Partial morphological changes thought to be induced by SRPIN-1 were detectable”. In addition, the “SARS virus propagation, concentration dependence (plaque assay)” value in series [9] is recorded as “suppress SARS virus propagation in a concentration-dependent manner”. The “SARS virus propagation (plaque assay)” value in [9] (Vero cells, 40 μM, 48 hours) is on record as “significantly suppressed SARS virus propagation”. For the same compound, the “viral propagation-suppressing effect compared with Compound No. 349” value in series [9] (Vero cells, SARS virus) was “stronger than that of the analog compound (Compound No. 349)”. For the same compound, the “inhibitory effect on PRP4” value in [10] was “did not exhibit an inhibitory effect”. In series [11], the “cell damage caused by sindbis virus propagation” value is on record as “dramatically suppressed”. Moreover, the “propagation of sindbis virus (plaque assay)” value in [11] was “significantly suppressed the propagation of sindbis virus in a concentration-dependent manner”. Moreover, the “inhibitory effect on PKA” value in series [12] is “did not exhibit an inhibitory effect”.
Turning to `CC(C)C[C@@H](C=O)NC(=O)[C@H](CC(C)C)NC(=O)[C@H](CC(C)C)NC(=O)OCc1ccccc1` [MG132] (Cbz-Leu-Leu-Leu-aldehyde), the “degradation of SR proteins (anti-HA signal)” value in [13] is “inhibited degradation of SR75, SR55, and SR40 proteins”.
